Data reported in ChEMBL document CHEMBL5346899, “PKM2/PDK1 dual-targeted shikonin derivatives restore the sensitivity of EGFR-mutated NSCLC cells to gefitinib by remodeling glucose metabolism” (Eur J Med Chem, 2023).
Activity calls are given as the source filed them. The rule behind the calls is not given here.

Experiments:
[1] = test system: NCI-H1975; experiment: Downregulation of PDK1 protein expression in human NCI-H1975 cells at 1 to 2 micromol/L by Western blot analysis; assay type: functional, cell-based; conditions: dose 1-2 µmol/L
[2] = test system: HCC827; experiment: Downregulation of PDK1 protein expression in human HCC827 cells at 1 to 2 micromol/L by Western blot analysis; assay type: functional, cell-based; conditions: dose 1-2 µmol/L
[3] = test system: NCI-H1975; experiment: Induction of apoptosis in human NCI-H1975 cells assessed as live cells at 0.5 micromol/L incubated for 24 hrs in presence of gefitinib by Annexin V-FITC/PI staining based analysis (reference value: 88.7%); assay type: functional; conditions: dose 0.5 µmol/L, at 0.5 µM
[4] = test system: HCC827; experiment: Antiproliferative activity against siRNA mediated PKM2 knockdown human HCC827 cells assessed as inhibition of cell growth incubated for 24 hrs by CCK-8 assay; assay type: functional, cell-based; conditions: HCC827, 24 h
[5] = test system: NCI-H1975; experiment: Induction of apoptosis in human NCI-H1975 cells transfected with siRNA assessed as early apoptotic cells at 2 micromol/L incubated for 24 hrs by Annexin V-FITC/PI staining based analysis (reference value: 1.16%); assay type: functional; conditions: dose 2 µmol/L, at 2 µM
[6] = test system: NCI-H1975; experiment: Induction of apoptosis in human NCI-H1975 cells assessed as dead cells at 0.5 micromol/L incubated for 24 hrs in presence of gefitinib by Annexin V-FITC/PI staining based analysis (reference value: 0.103%); assay type: functional; conditions: dose 0.5 µmol/L, at 0.5 µM
[7] = biological target: T1, [Pyruvate dehydrogenase (acetyl-transferring)] kinase isozyme 1, mitochondrial (Homo sapiens, UniProt Q15118); experiment: Binding affinity to PDK1 (unknown origin) assessed as dissociation constant associated for 60 secs and dissociated for 90 secs by bio-layer interferometry analysis
T1 sequence (Q15118 whole entry): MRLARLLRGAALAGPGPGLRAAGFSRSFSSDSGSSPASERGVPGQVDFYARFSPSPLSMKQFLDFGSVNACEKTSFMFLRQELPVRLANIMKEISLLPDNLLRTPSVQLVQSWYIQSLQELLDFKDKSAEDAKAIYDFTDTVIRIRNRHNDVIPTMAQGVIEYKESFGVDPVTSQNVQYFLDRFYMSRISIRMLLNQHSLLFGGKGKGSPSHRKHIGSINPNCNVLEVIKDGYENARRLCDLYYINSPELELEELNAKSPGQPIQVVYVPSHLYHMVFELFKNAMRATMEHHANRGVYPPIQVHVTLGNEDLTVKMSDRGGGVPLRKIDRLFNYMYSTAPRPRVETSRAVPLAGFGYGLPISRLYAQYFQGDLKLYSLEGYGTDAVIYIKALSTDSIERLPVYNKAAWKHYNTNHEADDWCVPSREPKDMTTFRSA

[8] = test system: A549; experiment: Induction of apoptosis in human A549 cells assessed as late apoptotic cells at 2 micromol/L incubated for 24 hrs by Annexin V-FITC/PI staining based analysis (reference value: 3.18%); assay type: functional; conditions: dose 2 µmol/L, at 2 µM
[9] = test system: NCI-H1975; experiment: Antiproliferative activity against human NCI-H1975 cells transfected with siRNA assessed as inhibition of cell growth incubated for 24 hrs by CCK-8 assay; assay type: functional, cell-based; conditions: NCI-H1975, 24 h
[10] = test system: A549; experiment: Induction of apoptosis in human A549 cells assessed as late apoptotic cells at 1 micromol/L incubated for 24 hrs by Annexin V-FITC/PI staining based analysis (reference value: 3.18%); assay type: functional; conditions: dose 1 µmol/L, at 1 µM
[11] = test system: A549; experiment: Induction of apoptosis in human A549 cells assessed as early apoptotic cells at 1 micromol/L incubated for 24 hrs by Annexin V-FITC/PI staining based analysis (reference value: […]%); assay type: functional; conditions: dose 1 µmol/L
[12] = test system: HCC827; experiment: Antiproliferative activity against human HCC827 cells assessed as reduction in clone size; assay type: functional, cell-based
[13] = biological target: T2, Pyruvate kinase PKM (Homo sapiens, UniProt P14618); experiment: Activation of PKM2 in siRNA mediated PKM2 knockdown human HCC827 cells at 1 to 2 micromol/L by Western blot analysis; assay type: cell-based; conditions: dose 1-2 µmol/L
T2 sequence (P14618 2-531 limits assumed): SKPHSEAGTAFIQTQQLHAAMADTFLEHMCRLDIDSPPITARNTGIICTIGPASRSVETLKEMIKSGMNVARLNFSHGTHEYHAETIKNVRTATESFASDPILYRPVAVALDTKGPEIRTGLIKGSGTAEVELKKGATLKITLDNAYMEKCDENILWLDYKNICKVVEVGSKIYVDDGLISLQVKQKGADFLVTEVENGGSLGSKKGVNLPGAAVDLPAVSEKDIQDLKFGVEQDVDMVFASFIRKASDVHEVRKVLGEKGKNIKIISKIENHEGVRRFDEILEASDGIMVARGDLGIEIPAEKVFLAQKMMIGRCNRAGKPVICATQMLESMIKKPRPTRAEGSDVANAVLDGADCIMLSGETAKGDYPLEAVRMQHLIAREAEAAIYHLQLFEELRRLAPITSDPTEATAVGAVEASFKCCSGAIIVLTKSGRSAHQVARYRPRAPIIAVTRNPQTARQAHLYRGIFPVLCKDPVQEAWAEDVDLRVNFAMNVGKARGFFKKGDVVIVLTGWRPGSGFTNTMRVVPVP

[14] = test system: NCI-H1975; experiment: Induction of apoptosis in human NCI-H1975 cells assessed as early apoptotic cells at 0.5 micromol/L incubated for 24 hrs by Annexin V-FITC/PI staining based analysis (reference value: 2.55%); assay type: functional; conditions: dose 0.5 µmol/L, at 0.5 µM
[15] = test system: NCI-H1975; experiment: Inhibition of NADPH production in human NCI-H1975 cells incubated for 2 hrs by NADP+/NADPH assay; assay type: functional, cell-based
[16] = Acute toxicity in ICR mouse assessed as reduction in animal survival rate at 2.4 to 38.4 mg/kg, ip administered once for 14 days and measured every day; assay type: organism-based; conditions: in vivo, 336 h, dose 2.4-38.4 mg/kg, time 14 day
[17] = test system: NCI-H1975; experiment: Synergistic antiproliferative activity against human NCI-H1975 cells harboring EGFR mutant assessed as cell growth inhibition at 0.5 to 4 micromol/L incubated for 24 hrs in presence of 2.5 to 20 micromol/L gefitinib by CCK-8 assay; assay type: functional, cell-based; conditions: dose 0.5-4 µmol/L
[18] = test system: HCC827; experiment: Induction of apoptosis in human HCC827 cells assessed as early apoptotic cells at 2 micromol/L incubated for 24 hrs by Annexin V-FITC/PI staining based analysis (reference value: 9.14%); assay type: functional; conditions: dose 2 µmol/L, at 2 µM
[19] = test system: NCI-H1975; experiment: Induction of mitochondrial transmembrane potential dissipation in human NCI-H1975 cells assessed as cells with low mitochondrial transmembrane potential at 1 micromol/L by FL-1/FL-2 channel based fluorescence analysis (reference value: 2.13%); assay type: functional; conditions: dose 1 µmol/L; at 1 µM
[20] = test system: NCI-H1975; experiment: Induction of apoptosis in human NCI-H1975 cells assessed as regulation of FADD expression by Western blot analysis; assay type: functional, cell-based
[21] = test system: NCI-H1299; experiment: Induction of apoptosis in human NCI-H1299 cells assessed as late apoptotic cells at 2 micromol/L incubated for 24 hrs by Annexin V-FITC/PI staining based analysis (reference value: 14.9%); assay type: functional; conditions: dose 2 µmol/L, at 2 µM
[22] = test system: NCI-H1975; experiment: Induction of apoptosis in human NCI-H1975 cells assessed as late apoptotic cells at 2 micromol/L incubated for 24 hrs by Annexin V-FITC/PI staining based analysis (reference value: 2.66%); assay type: functional; conditions: dose 2 µmol/L, at 2 µM
[23] = Acute toxicity in ICR mouse assessed as damage in vital organs at 2.4 to 38.4 mg/kg, ip measured after 15 days by H and E staining based analysis; assay type: organism-based; conditions: in vivo, 360 h, dose 2.4-38.4 mg/kg, time 15 day
[24] = biological target: T1, [Pyruvate dehydrogenase (acetyl-transferring)] kinase isozyme 1, mitochondrial; experiment: Inhibition of PDK1 in human HCC827 cells at 1 to 2 micromol/L by Western blot analysis; assay type: cell-based; conditions: dose 1-2 µmol/L
[25] = test system: NCI-H1975; experiment: Induction of apoptosis in human NCI-H1975 cells with siRNA mediated […] knockdown assessed as late apoptotic cells at 1 micromol/L incubated for 24 hrs by Annexin V-FITC/PI staining based analysis (reference value: 6.25%); assay type: functional; conditions: dose 1 µmol/L, at 1 µM
[26] = test system: NCI-H1975; experiment: Induction of apoptosis in human NCI-H1975 cells transfected with siRNA assessed as early apoptotic cells at 1 micromol/L incubated for 24 hrs by Annexin V-FITC/PI staining based analysis (reference value: 1.16%); assay type: functional; conditions: dose 1 µmol/L, at 1 µM
[27] = test system: NCI-H1975; experiment: Induction of apoptosis in human NCI-H1975 cells assessed as live cells at 0.5 micromol/L incubated for 24 hrs by Annexin V-FITC/PI staining based analysis (reference value: 88.7%); assay type: functional; conditions: dose 0.5 µmol/L, at 0.5 µM
[28] = test system: NCI-H1299; experiment: Induction of apoptosis in human NCI-H1299 cells assessed as early apoptotic cells at 2 micromol/L incubated for 24 hrs by Annexin V-FITC/PI staining based analysis (reference value: 2.43%); assay type: functional; conditions: dose 2 µmol/L, at 2 µM
[29] = test system: A549; experiment: cells; assay type: functional, cell-based; conditions: Homo sapiens, A549, 24 h
Description: Antiproliferative activity against human A549 cells assessed as inhibition of cell growth incubated for 24 hrs by CCK-8 assay

[30] = test system: NCI-H1975; experiment: Induction of apoptosis in human NCI-H1975 cells transfected with siRNA assessed as late apoptotic cells at 2 micromol/L incubated for 24 hrs by Annexin V-FITC/PI staining based analysis (reference value: 4.03%); assay type: functional; conditions: dose 2 µmol/L, at 2 µM
[31] = test system: NCI-H1975; experiment: Antiproliferative activity against human NCI-H1975 cells assessed as inhibition of clone formation rate; assay type: functional, cell-based
[32] = biological target: T2, Pyruvate kinase PKM; experiment: Inhibition of PKM2 (unknown origin) nuclear translocation
[33] = test system: NCI-H1975; experiment: Antitumor activity against human NCI-H1975 cells xenografted in athymic nu/nu mouse assessed as reduction in tumor size at 2.4 to 4.8 mg/kg, ip administered every 2 days for 11 days by vernier caliper method; assay type: functional, organism-based; conditions: dose 2.4-4.8 mg/kg, time 11.0 day

Compound: COC(=O)[C@H](CS[C@H](CC=C(C)C)C1=CC(=O)c2c(O)ccc(O)c2C1=O)NC(=O)CCCC[C@@H]1CCSC(c2ccccc2C)S1 (stereo partly drawn)
- Activity [1]: inactive
- Activity [2]: inactive
- Activity [3]: 57.5%
- IC50 [4]: 13 µM
- Activity [5]: 8.24%
- Activity [6]: 0.011%
- Kd [7]: 12.1 µM
- Activity [8]: 6.46%
- IC50 [9]: 3.5 µM
- Activity [10]: 5.33%
- Activity [11]: 8.74%
- Activity [12]: Dose-Dependent Effect
- Activity [13]: inactive
- Activity [14]: 1.54%
- inhibition [15]: Active
- Activity [16]: Non-Toxic
- Activity [17]: Active
- Activity [18]: 29.4%
- Activity [19]: 11.8%
- Activity [20]: Active
- Activity [21]: 24.5%
- Activity [22]: 37.3%
- Activity [23]: Non-Toxic
- inhibition [24]: Active
- Activity [25]: 4.95%
- Activity [26]: 3.44%
- Activity [27]: 87.3%
- Activity [28]: 2.68%
- IC50 [29]: 6.26 µM
- Activity [30]: 9.4%
- Activity [31]: Dose-Dependent Effect
- inhibition [32]: Active
- Activity [33]: Active
